# Measurements from ChEMBL document CHEMBL3045833, “Synthesis and antifungal activity of novel 7-O-substituted pyridyl-4-methyl coumarin derivatives” (2013).
# How the values were obtained:
# Assay type in all cases: functional
# [1] = tested on: Candida albicans; experiment: Antifungal activity against Candida albicans SC5314 assessed as growth inhibition after 24 hr by NCCLS microbroth dilution method; settings: SC5314, 24 h
# [2] = tested on: Kluyveromyces marxianus; experiment: Antifungal activity against Kluyveromyces marxianus assessed as growth inhibition by NCCLS microbroth dilution method
# [3] = tested on: Candida tropicalis; experiment: Antifungal activity against Candida tropicalis assessed as growth inhibition by NCCLS microbroth dilution method
# [4] = tested on: Trichophyton rubrum; experiment: Antifungal activity against Trichophyton rubrum assessed as growth inhibition by NCCLS microbroth dilution method
# [5] = tested on: Candida albicans; experiment: Antifungal activity against Candida albicans Y0109 assessed as growth inhibition after 24 hr by NCCLS microbroth dilution method; settings: Y0109, 24 h
# [6] = tested on: Candida parapsilosis; experiment: Antifungal activity against Candida parapsilosis assessed as growth inhibition by NCCLS microbroth dilution method; settings: Lodderomyces parapsilosis
# [7] = tested on: Cryptococcus neoformans; experiment: Antifungal activity against Cryptococcus neoformans assessed as growth inhibition after 72 hr by NCCLS microbroth dilution method
# [8] = tested on: Aspergillus fumigatus; experiment: Antifungal activity against Aspergillus fumigatus assessed as growth inhibition by NCCLS microbroth dilution method
SMILES,MIC80 [1] [µg/mL],MIC80 [2] [µg/mL],MIC80 [3] [µg/mL],MIC80 [4] [µg/mL],MIC80 [5] [µg/mL],MIC80 [6] [µg/mL],MIC80 [7] [µg/mL],MIC80 [8] [µg/mL]
Cc1cc(=O)oc2cc(Oc3ccc(NC(=O)C4CC4)cn3)ccc12,16,32,16,8,> 64,8,32,> 64
Cc1cc(=O)oc2cc(Oc3ccc(NC(=O)C(F)(F)F)cn3)ccc12,0.25,32,16,16,0.25,1,32,> 64
Cc1cnc(C(=O)Nc2ccc(Oc3ccc4c(C)cc(=O)oc4c3)nc2)cn1,16,4,1,16,16,> 64,4,> 64
Cc1cc(=O)oc2cc(Oc3ccc(NC(=O)CC#N)cn3)ccc12,0.25,16,> 64,0.25,16,4,16,> 64
Cc1cc(=O)oc2cc(Oc3ccc([N+](=O)[O-])cn3)ccc12,> 64,> 64,> 64,64,64,32,64,> 64
Cc1cc(=O)oc2cc(Oc3ccc(NC(=O)Cc4c[nH]c5ccccc45)cn3)ccc12,> 64,> 64,> 64,16,64,> 64,8,> 64
Cc1cc(=O)oc2cc(Oc3ccc(NC(=O)CN(C)C)cn3)ccc12,32,32,1,16,16,32,16,> 64
C[C@@H]1[C@H](O)[C@@H](C)/C=C/C=C/C=C/C=C/C=C/C=C/C=C/[C@H](O[C@@H]2O[C@H](C)[C@@H](O)[C@H](N)[C@@H]2O)C[C@@H]2O[C@](O)(C[C@@H](O)C[C@@H](O)[C@H](O)CC[C@@H](O)C[C@@H](O)CC(=O)O[C@H]1C)C[C@H](O)[C@H]2C(=O)O [AMPHOTERICIN B],0.25,0.25,1,1,0.25,1,1,1
Cc1cc(=O)oc2cc(Oc3ccc(NC(=O)Cc4ccccc4)cn3)ccc12,> 64,> 64,> 64,> 64,> 64,> 64,> 64,> 64
Cc1cc(=O)oc2cc(Oc3ccc(NC(=O)c4ccncc4)cn3)ccc12,16,8,16,32,16,0.25,32,> 64
Cc1cc(=O)oc2cc(Oc3ccc(NC(=O)c4cccnc4)cn3)ccc12,32,16,32,32,32,32,16,> 64
Cc1cc(=O)oc2cc(Oc3ccc(NC(=O)C4CCCCC4)cn3)ccc12,> 64,> 64,> 64,8,> 64,4,32,> 64
Cc1cc(=O)oc2cc(Oc3ccc(NC(=O)c4ccco4)cn3)ccc12,32,16,8,16,16,> 64,> 64,> 64
Cc1cc(=O)oc2cc(Oc3ccc(NC(=O)c4cccs4)cn3)ccc12,32,32,16,16,16,32,32,> 64
Cc1cc(=O)oc2cc(O)ccc12 [HYMECROMONE],> 64,> 64,> 64,32,> 64,32,> 64,> 64
Cc1cc(=O)oc2cc(Oc3ccc(NC(=O)c4cnccn4)cn3)ccc12,4,16,1,0.25,4,32,1,> 64
Cc1cc(=O)oc2cc(Oc3ccc(NC(=O)/C=C/c4ccccc4)cn3)ccc12,> 64,16,> 64,4,> 64,> 64,> 64,> 64
Cc1cc(=O)oc2cc(Oc3ccc(NC(=O)C(C)(C)C)cn3)ccc12,4,16,32,1,4,32,32,> 64
CC(=O)Nc1ccc(Oc2ccc3c(C)cc(=O)oc3c2)nc1,0.25,16,8,16,1,1,8,> 64
Cc1cc(=O)oc2cc(Oc3ccc(N)cn3)ccc12,> 64,> 64,> 64,32,16,32,> 64,> 64
Cc1cc(=O)oc2cc(Oc3ccc(NC(=O)c4ccccn4)cn3)ccc12,16,16,16,16,16,32,32,> 64
OC(Cn1cncn1)(Cn1cncn1)c1ccc(F)cc1F [FLUCONAZOLE],0.25,4,4,1,0.25,4,4,> 64
Cc1cc(=O)oc2cc(Oc3ccc(NC(=O)c4ccccc4)cn3)ccc12,16,32,16,8,4,1,16,> 64
